# Assay results: PMC7586935 (Journal of Clinical Pharmacology, 2020)
# Where a name gives a salt, the structure may show the parent alone. Read-outs that look alike come from different tables or passages of the source.
# What was measured:
# [1] = tested on: healthy volunteers; assay: Safety assessment: treatment-emergent adverse events; assay type: in vivo, human
# [2] = tested on: QTcF interval of healthy volunteers; assay: Time-matched analysis of placebo-adjusted change from baseline QTcF; assay type: in vivo, human
# [3] = tested on: QT/QTc interval of healthy volunteers; assay: Concentration-QTc
# [4] = tested on: human ether‐a‐go‐go–related gene potassium channels; details: in vitro, at clinically relevant plasma concentrations; cited from earlier work
# [5] = tested on: HR, PR, and QRS of healthy volunteers; assay: PK-PD analysis of other ECG parameters; assay type: in vivo, human
# [6] = tested on: CYP3A4; details: cited from earlier work
# [7] = tested on: healthy volunteers; assay: ECG morphological analyses; assay type: in vivo, human
# [8] = Plasma pharmacokinetics after single oral dose; assay type: in vivo; details: human; for AUC / Tmax: oral; for Cmax: po
# [9] = mean ± SE, cited from earlier work
# [10] = tested on: healthy volunteers; assay: ECG outlier analyses; assay type: in vivo, human
# [11] = 50 mg trazodone HCl with ritonavir (4 doses of 200 mg)
# [12] = 50 mg trazodone HCl, control condition
compound,measurement,setting,value
"O=c1n(CCCN2CCN(c3cccc(Cl)c3)CC2)nc2ccccn12 [Trazodone, Trazodone hydrochloride]","Dizziness, frequency of subjects",[1]; trazodone 20 mg,0%
same,"Somnolence, frequency of subjects",[1]; trazodone 20 mg,44.4%
same,"Dizziness, frequency of subjects",[1]; trazodone 60 mg,5.6%
same,"Somnolence, frequency of subjects",[1]; trazodone 60 mg,50.0%
same,"Headache, frequency of subjects",[1]; trazodone 140 mg,10%
same,"Somnolence, frequency of subjects",[1]; trazodone 140 mg,85.0%
same,"Vomiting, frequency of subjects",[1]; trazodone 140 mg,10%
same,"Treatment-related ECG QT prolongation, frequency of subjects","[1]; trazodone 140 mg, 1 subject",5%
same,"Treatment-related abdominal discomfort, frequency of subjects","[1]; trazodone 140 mg, 1 subject",5%
same,"Treatment-related hypertension, frequency of subjects","[1]; trazodone 140 mg, 1 subject",5%
same,"Treatment-related hypotension, frequency of subjects","[1]; trazodone 140 mg, 1 subject",5%
same,"Treatment-related palpitations, frequency of subjects","[1]; trazodone 140 mg, 1 subject",5%
same,"Placebo-adjusted change from baseline QTcF, estimate (90%CI)","[2]; trazodone 20 mg, N = 16, 5 min postdose",–3.3 (–7.8 to 1.1) ms
same,"Placebo-adjusted change from baseline QTcF, estimate (90%CI)","[2]; trazodone 20 mg, N = 16, 10 min postdose",–1.2 (–6.2 to 3.8) ms
same,"Placebo-adjusted change from baseline QTcF, estimate (90%CI)","[2]; trazodone 20 mg, N = 16, 20 min postdose",–0.2 (–5.4 to 5.0) ms
same,"Placebo-adjusted change from baseline QTcF, estimate (90%CI)","[2]; trazodone 20 mg, N = 16, 0.5 h postdose",2.1 (–0.3 to 4.6) ms
same,"Placebo-adjusted change from baseline QTcF, estimate (90%CI)","[2]; trazodone 20 mg, N = 16, 1 h postdose",6.6 (1.5–11.7) ms
same,"Placebo-adjusted change from baseline QTcF, estimate (90%CI)","[2]; trazodone 20 mg, N = 16, 2 h postdose",3.5 (0.5–6.5) ms
same,"Placebo-adjusted change from baseline QTcF, estimate (90%CI)","[2]; trazodone 20 mg, N = 16, 3 h postdose",1.7 (–2.7 to 6.1) ms
same,"Placebo-adjusted change from baseline QTcF, estimate (90%CI)","[2]; trazodone 20 mg, N = 16, 4 h postdose",3.2 (–2.3 to 8.6) ms
same,"Placebo-adjusted change from baseline QTcF, estimate (90%CI)","[2]; trazodone 20 mg, N = 16, 6 h postdose",–0.2 (–4.8 to 4.3) ms
same,"Placebo-adjusted change from baseline QTcF, estimate (90%CI)","[2]; trazodone 20 mg, N = 16, 8 h postdose",1.2 (–2.3 to 4.6) ms
same,"Placebo-adjusted change from baseline QTcF, estimate (90%CI)","[2]; trazodone 20 mg, N = 16, 12 h postdose",0.6 (–4.7 to 5.8) ms
same,"Placebo-adjusted change from baseline QTcF, estimate (90%CI)","[2]; trazodone 20 mg, N = 16, 16 h postdose",–3.3 (–6.9 to 0.3) ms
same,"Placebo-adjusted change from baseline QTcF, estimate (90%CI)","[2]; trazodone 20 mg, N = 16, 24 h postdose",1.8 (–3.5 to 7.1) ms
same,"Placebo-adjusted change from baseline QTcF, estimate (90%CI)","[2]; trazodone 60 mg, N = 16, 5 min postdose",–2.3 (–6.7 to 2.1) ms
same,"Placebo-adjusted change from baseline QTcF, estimate (90%CI)","[2]; trazodone 60 mg, N = 16, 10 min postdose",0.3 (–4.1 to 4.6) ms
same,"Placebo-adjusted change from baseline QTcF, estimate (90%CI)","[2]; trazodone 60 mg, N = 16, 20 min postdose",4.8 (–0.4 to 10.0) ms
same,"Placebo-adjusted change from baseline QTcF, estimate (90%CI)","[2]; trazodone 60 mg, N = 16, 0.5 h postdose",11.9 (8.6–15.3) ms
same,"Placebo-adjusted change from baseline QTcF, estimate (90%CI)","[2]; trazodone 60 mg, N = 16, 2 h postdose",8.8 (4.2–13.4) ms
same,"Placebo-adjusted change from baseline QTcF, estimate (90%CI)","[2]; trazodone 60 mg, N = 16, 3 h postdose",6.1 (1.9–10.2) ms
same,"Placebo-adjusted change from baseline QTcF, estimate (90%CI)","[2]; trazodone 60 mg, N = 16, 4 h postdose",7.9 (4.3–11.5) ms
same,"Placebo-adjusted change from baseline QTcF, estimate (90%CI)","[2]; trazodone 60 mg, N = 16, 6 h postdose",2.2 (–1.8 to 6.2) ms
same,"Placebo-adjusted change from baseline QTcF, estimate (90%CI)","[2]; trazodone 60 mg, N = 16, 8 h postdose",–0.4 (–3.4 to 2.7) ms
same,"Placebo-adjusted change from baseline QTcF, estimate (90%CI)","[2]; trazodone 60 mg, N = 16, 12 h postdose",6.4 (1.7–11.0) ms
same,"Placebo-adjusted change from baseline QTcF, estimate (90%CI)","[2]; trazodone 60 mg, N = 16, 16 h postdose",–1.4 (–5.6 to 2.7) ms
same,"Placebo-adjusted change from baseline QTcF, estimate (90%CI)","[2]; trazodone 60 mg, N = 16, 24 h postdose",2.0 (–3.0 to 6.9) ms
same,"Placebo-adjusted change from baseline QTcF, estimate (90%CI)","[2]; trazodone 60 mg, N = 16, […] postdose",16.9 ms
same,Increase in the QTcF interval (time-matched analysis),"[2]; trazodone 60 mg, between 30 minutes and […] postdose",> 10 ms
same,"Placebo-adjusted change from baseline QTcF, estimate (90%CI)","[2]; trazodone 140 mg, N = 18, 5 min postdose",0.8 (–2.7 to 4.4) ms
same,"Placebo-adjusted change from baseline QTcF, estimate (90%CI)","[2]; trazodone 140 mg, N = 18, 10 min postdose",0.5 (–3.0 to 4.0) ms
same,"Placebo-adjusted change from baseline QTcF, estimate (90%CI)","[2]; trazodone 140 mg, N = 18, 20 min postdose",11.6 (7.8–15.5) ms
same,"Placebo-adjusted change from baseline QTcF, estimate (90%CI)","[2]; trazodone 140 mg, N = 18, 0.5 h postdose",20.2 (16.4–23.9) ms
same,"Placebo-adjusted change from baseline QTcF, estimate (90%CI)","[2]; trazodone 140 mg, N = 18, 1 h postdose",24.5 (20.3–28.7) ms
same,"Placebo-adjusted change from baseline QTcF, estimate (90%CI)","[2]; trazodone 140 mg, N = 18, 2 h postdose",17.1 (13.4–20.8) ms
same,"Placebo-adjusted change from baseline QTcF, estimate (90%CI)","[2]; trazodone 140 mg, N = 18, 3 h postdose",14.5 (7.6–21.5) ms
same,"Placebo-adjusted change from baseline QTcF, estimate (90%CI)","[2]; trazodone 140 mg, N = 18, 4 h postdose",12.8 (8.5–17.1) ms
same,"Placebo-adjusted change from baseline QTcF, estimate (90%CI)","[2]; trazodone 140 mg, N = 18, 6 h postdose",6.7 (2.3–11.2) ms
same,"Placebo-adjusted change from baseline QTcF, estimate (90%CI)","[2]; trazodone 140 mg, N = 18, 8 h postdose",5.8 (0.9–10.7) ms
same,"Placebo-adjusted change from baseline QTcF, estimate (90%CI)","[2]; trazodone 140 mg, N = 18, 12 h postdose",7.9 (4.3–11.6) ms
same,"Placebo-adjusted change from baseline QTcF, estimate (90%CI)","[2]; trazodone 140 mg, N = 18, 16 h postdose",–0.7 (–5.2 to 3.8) ms
same,"Placebo-adjusted change from baseline QTcF, estimate (90%CI)","[2]; trazodone 140 mg, N = 18, 24 h postdose",1.7 (–1.4 to 4.8) ms
same,Increase in the QTcF interval (time-matched analysis),"[2]; trazodone 140 mg, between 15 minutes and 4 hours postdose",> 10 ms
same,"Predicted Mean Effect at Mean Cmax (placebo-corrected change from baseline QTcF, ΔΔQTcF)","[3]; trazodone 60 mg, mean Cmax 1269.0 ng/mL",12.3 ms
same,"Predicted Mean Effect at Mean Cmax (placebo-corrected change from baseline QTcF, ΔΔQTcF)","[3]; trazodone 140 mg, mean Cmax 2083.5 ng/mL",19.8 ms
same,Inhibition of hERG potassium channels,[4],potent dose‐dependent inhibition
same,Slope of HR change from baseline vs trazodone plasma concentration,[5]; SE 0.8013,2.199
same,Slope of PR change from baseline vs trazodone plasma concentration,[5]; in vivo,–3.6040
same,Slope of QRS change from baseline vs trazodone plasma concentration,[5]; in vivo,0.0445
same,Predicted placebo-adjusted and baseline-corrected HR at mean Cmax,[5]; trazodone 20 mg,1.45 bpm
same,Predicted placebo-adjusted and baseline-corrected HR at mean Cmax,[5]; trazodone 60 mg,2.12 bpm
same,Predicted placebo-adjusted and baseline-corrected HR at mean Cmax,[5]; trazodone 140 mg,2.76 bpm
same,Predicted placebo-adjusted and baseline-corrected PR at predicted Cmax,[5]; trazodone 140 mg,–7.4 ms
same,Predicted placebo-adjusted and baseline-corrected QRS at predicted Cmax,[5]; trazodone 140 mg,0.115 ms
same,Metabolic pathway,[6],primarily metabolized by CYP3A4
same,New ST‐segment depression changes,"[7]; trazodone 20 mg, n = 18",0 n (%)
same,New ST‐segment elevation changes,"[7]; trazodone 20 mg, n = 18",0 n (%)
same,New second‐degree heart block,"[7]; trazodone 20 mg, n = 18",0 n (%)
same,New third‐degree heart block,"[7]; trazodone 20 mg, n = 18",0 n (%)
same,New ST‐segment depression changes,"[7]; trazodone 60 mg, n = 18",1 (6) n (%)
same,New ST‐segment elevation changes,"[7]; trazodone 60 mg, n = 18",0 n (%)
same,New second‐degree heart block,"[7]; trazodone 60 mg, n = 18",0 n (%)
same,New third‐degree heart block,"[7]; trazodone 60 mg, n = 18",0 n (%)
same,New ST‐segment depression changes,"[7]; trazodone 140 mg, n = 20",0 n (%)
same,New ST‐segment elevation changes,"[7]; trazodone 140 mg, n = 20",0 n (%)
same,New second‐degree heart block,"[7]; trazodone 140 mg, n = 20",0 n (%)
same,New third‐degree heart block,"[7]; trazodone 140 mg, n = 20",0 n (%)
same,AUC,[8]; 20 mg,2150 ± 909 ng·h/mL
same,Tmax,[8]; 20 mg,30 min
same,AUC,[8]; 60 mg,6240 ± 2030 ng·h/mL
same,Tmax,[8]; 60 mg,30 min
same,AUC,[8]; 140 mg,12800 ± 4910 ng·h/mL
same,Tmax,[8]; 140 mg,18 min
same,Cmax,[8]; 20 mg,413 ± 79.1 ng/mL
same,Cmax,[8]; 60 mg,1270 ± 598 ng/mL
same,Cmax,[8]; 140 mg,2080 ± 600 ng/mL
same,Elimination half-life,[9]; [11],894 ± 234 min
same,Peak plasma concentrations,[9]; [11],1125 ± 111 ng/mL
same,Elimination half-life,[9]; [12],402 ± 42 min
same,Peak plasma concentrations,[9]; [12],842 ± 64 ng/mL
same,Heart rate: Bradycardic outliers,"[10]; trazodone 20 mg, n = 18",0 n (%)
same,Heart rate: Tachycardic outliers,"[10]; trazodone 20 mg, n = 18",0 n (%)
same,PR interval: Outliers,"[10]; trazodone 20 mg, n = 18",1 (6) n (%)
same,QRS interval: Outliers,"[10]; trazodone 20 mg, n = 18",0 n (%)
same,QTcF >30‐60 ms inc change from baseline,"[10]; trazodone 20 mg, n = 18",0 n (%)
same,QTcF >60 ms inc change from baseline,"[10]; trazodone 20 mg, n = 18",0 n (%)
same,QTcF New >480 ms,"[10]; trazodone 20 mg, n = 18",0 n (%)
same,QTcF New >500 ms,"[10]; trazodone 20 mg, n = 18",0 n (%)
same,Heart rate: Bradycardic outliers,"[10]; trazodone 60 mg, n = 18",0 n (%)
same,Heart rate: Tachycardic outliers,"[10]; trazodone 60 mg, n = 18",1 (6) n (%)
same,PR interval: Outliers,"[10]; trazodone 60 mg, n = 18",0 n (%)
same,QRS interval: Outliers,"[10]; trazodone 60 mg, n = 18",0 n (%)
same,QTcF >30‐60 ms inc change from baseline,"[10]; trazodone 60 mg, n = 18",1 (6) n (%)
same,QTcF >60 ms inc change from baseline,"[10]; trazodone 60 mg, n = 18",0 n (%)
same,QTcF New >480 ms,"[10]; trazodone 60 mg, n = 18",0 n (%)
same,QTcF New >500 ms,"[10]; trazodone 60 mg, n = 18",0 n (%)
same,Heart rate: Bradycardic outliers,"[10]; trazodone 140 mg, n = 20",1 (5) n (%)
same,Heart rate: Tachycardic outliers,"[10]; trazodone 140 mg, n = 20",2 (10) n (%)
same,PR interval: Outliers,"[10]; trazodone 140 mg, n = 20",1 (5) n (%)
same,QRS interval: Outliers,"[10]; trazodone 140 mg, n = 20",0 n (%)
same,QTcF >30‐60 ms inc change from baseline,"[10]; trazodone 140 mg, n = 20",6 (30) n (%)
same,QTcF >60 ms inc change from baseline,"[10]; trazodone 140 mg, n = 20",0 n (%)
same,QTcF New >480 ms,"[10]; trazodone 140 mg, n = 20",2 (10) n (%)
same,QTcF New >500 ms,"[10]; trazodone 140 mg, n = 20",0 n (%)
